Here are results for 1 molecule from PMC5218480 (PLoS ONE, 2017).

The experiment concerns MV-4-11 cells. In words: Gene expression microarray analysis (Affymetrix PrimeView) and GSEA. It counts as cell-based, human. On the set-up: RFU PODN (11730768_x_at) / Fold change /veh PODN (11730768_x_at) / RFU LINC00158 (11744669_a_at) / Fold change /veh LINC00158 (11744669_a_at) / RFU DUSP10 (11751237_a_at) / Fold change /veh DUSP10 (11751237_a_at) / RFU ID3 (11757404_x_at) / Fold change /veh ID3 (11757404_x_at) / RFU PLEKHG5 (11737974_s_at) / Fold change /veh PLEKHG5 (11737974_s_at) / RFU LRRC4B (11730491_at) / Fold change /veh LRRC4B (11730491_at) / RFU GIMAP4 (11747438_a_at) / Fold change /veh GIMAP4 (11747438_a_at) / RFU KRT8 (11758183_x_at) / Fold change /veh KRT8 (11758183_x_at) / RFU CNN1 (11734310_a_at) / Fold change /veh CNN1 (11734310_a_at) / RFU VPS37D (11726825_at) / Fold change /veh VPS37D (11726825_at) / RFU C10orf10 (11716522_x_at) / Fold change /veh C10orf10 (11716522_x_at) / RFU KIR2DL2 /// KIR2DL4 /// KIR2DL5A /// KIR2DL5B /// KIR2DS1 /// KIR2DS2 /// KIR2DS3 /// KIR2DS4 /// KIR3DL3 /// KIR3DL3 /// KIR3DS1 (11738374_at) / Fold change /veh KIR2DL2 /// KIR2DL4 /// KIR2DL5A /// KIR2DL5B /// KIR2DS1 /// KIR2DS2 /// KIR2DS3 /// KIR2DS4 /// KIR3DL3 /// KIR3DL3 /// KIR3DS1 (11738374_at) / RFU C1QL1 (11718748_at) / Fold change /veh C1QL1 (11718748_at) / RFU TMPRSS4 (11747572_a_at) / Fold change /veh TMPRSS4 (11747572_a_at) / RFU HAMP (11756126_x_at) / Fold change /veh HAMP (11756126_x_at) / RFU RNFT2 (11725882_a_at) / Fold change /veh RNFT2 (11725882_a_at) / RFU NR4A2 (11747474_a_at) / Fold change /veh NR4A2 (11747474_a_at) / RFU ABCC12 (11746883_a_at) / Fold change /veh ABCC12 (11746883_a_at) / RFU TMEM136 (11760407_x_at) / Fold change /veh TMEM136 (11760407_x_at) / RFU CLDN22 /// WWC2 (11732394_at) / Fold change /veh CLDN22 /// WWC2 (11732394_at) / RFU HLA-DPB1 (11760878_x_at) / Fold change /veh HLA-DPB1 (11760878_x_at) / RFU SPINT1 (11716480_a_at) / Fold change /veh SPINT1 (11716480_a_at) / RFU GAP43 (11754022_s_at) / Fold change /veh GAP43 (11754022_s_at) / RFU A4GNT (11735810_at) / Fold change /veh A4GNT (11735810_at) / RFU PRB3 (11715151_x_at) / Fold change /veh PRB3 (11715151_x_at) / RFU TUBB4B (11761932_at) / Fold change /veh TUBB4B (11761932_at) / RFU CAPN14 (11732068_a_at) / Fold change /veh CAPN14 (11732068_a_at) / RFU TMCC2 (11721928_a_at) / Fold change /veh TMCC2 (11721928_a_at) / RFU IRGQ (11745062_a_at) / Fold change /veh IRGQ (11745062_a_at) / RFU FAM174B (11720279_a_at) / Fold change /veh FAM174B (11720279_a_at) / RFU TMPRSS4 (11748680_a_at) / Fold change /veh TMPRSS4 (11748680_a_at) / RFU FAM212B (11763350_a_at) / Fold change /veh FAM212B (11763350_a_at) / RFU PLEKHG5 (11743358_a_at) / Fold change /veh PLEKHG5 (11743358_a_at) / RFU ZSCAN30 (11745921_a_at) / Fold change /veh ZSCAN30 (11745921_a_at) / RFU CMKLR1 (11741424_a_at) / Fold change /veh CMKLR1 (11741424_a_at) / RFU LOC101060620 /// MAPK8IP1 (11723275_at) / Fold change /veh LOC101060620 /// MAPK8IP1 (11723275_at) / RFU SPTSSB (11747773_x_at) / Fold change /veh SPTSSB (11747773_x_at) / RFU PRSS12 (11739890_at) / Fold change /veh PRSS12 (11739890_at) / RFU BIN1 (11741810_x_at) / Fold change /veh BIN1 (11741810_x_at) / RFU WNT11 (11732464_a_at) / Fold change /veh WNT11 (11732464_a_at) / RFU C10orf10 (11716521_a_at) / Fold change /veh C10orf10 (11716521_a_at) / RFU C5orf56 (11738089_at) / Fold change /veh C5orf56 (11738089_at) / RFU CYB561 (11721691_x_at) / Fold change /veh CYB561 (11721691_x_at) / RFU ANKRD19P (11752326_a_at) / Fold change /veh ANKRD19P (11752326_a_at) / RFU OR2T12 /// OR2T33 /// OR2T8 (11738714_s_at) / Fold change /veh OR2T12 /// OR2T33 /// OR2T8 (11738714_s_at) / RFU VCAN (11748164_a_at) / Fold change /veh VCAN (11748164_a_at) / RFU JSRP1 (11732532_at) / Fold change /veh JSRP1 (11732532_at) / RFU KRTAP10-11 (11738290_x_at) / Fold change /veh KRTAP10-11 (11738290_x_at) / RFU MYO3A (11730013_a_at) / Fold change /veh MYO3A (11730013_a_at) / RFU EBF3 (11725865_a_at) / Fold change /veh EBF3 (11725865_a_at) / RFU CAMK2N1 (11719241_x_at) / Fold change /veh CAMK2N1 (11719241_x_at) / RFU C5orf56 (11738088_a_at) / Fold change /veh C5orf56 (11738088_a_at) / RFU OLFML3 (11715873_a_at) / Fold change /veh OLFML3 (11715873_a_at) / RFU LOC100653217 /// NTM (11731650_a_at) / Fold change /veh LOC100653217 /// NTM (11731650_a_at) / RFU MAPK11 (11762145_a_at) / Fold change /veh MAPK11 (11762145_a_at) / RFU FIZ1 (11724087_x_at) / Fold change /veh FIZ1 (11724087_x_at) / RFU OASL (11726364_x_at) / Fold change /veh OASL (11726364_x_at) / RFU SOX15 (11748057_x_at) / Fold change /veh SOX15 (11748057_x_at) / RFU CD79A (11719716_a_at) / Fold change /veh CD79A (11719716_a_at) / RFU HIST1H1D (11736915_at) / Fold change /veh HIST1H1D (11736915_at) / RFU CASKIN2 (11723855_a_at) / Fold change /veh CASKIN2 (11723855_a_at) / RFU LOC730098 (11760151_x_at) / Fold change /veh LOC730098 (11760151_x_at) / RFU OR4N2 (11742367_at) / Fold change /veh OR4N2 (11742367_at) / RFU PRRT2 (11749266_a_at) / Fold change /veh PRRT2 (11749266_a_at) / RFU SNX32 (11753110_a_at) / Fold change /veh SNX32 (11753110_a_at) / RFU CDHR5 (11726645_a_at) / Fold change /veh CDHR5 (11726645_a_at) / RFU RCAN1 (11760418_a_at) / Fold change /veh RCAN1 (11760418_a_at) / RFU FAM167A (11723789_a_at) / Fold change /veh FAM167A (11723789_a_at) / RFU FAM26E (11764081_at) / Fold change /veh FAM26E (11764081_at) / RFU ISYNA1 (11749810_s_at) / Fold change /veh ISYNA1 (11749810_s_at) / RFU ACY1 (11761880_at) / Fold change /veh ACY1 (11761880_at) / RFU 11764098_at / Fold change /veh 11764098_at / RFU SAMD14 (11745864_x_at) / Fold change /veh SAMD14 (11745864_x_at) / RFU NPB (11741838_a_at) / Fold change /veh NPB (11741838_a_at) / RFU TMPRSS6 (11731388_a_at) / Fold change /veh TMPRSS6 (11731388_a_at) / RFU KRTAP10-2 (11738614_at) / Fold change /veh KRTAP10-2 (11738614_at) / RFU ARHGAP8 /// PRR5-ARHGAP8 (11727945_x_at) / Fold change /veh ARHGAP8 /// PRR5-ARHGAP8 (11727945_x_at) / RFU KRTAP5-7 /// NADSYN1 (11734609_at) / Fold change /veh KRTAP5-7 /// NADSYN1 (11734609_at) / RFU RASL12 (11751679_a_at) / Fold change /veh RASL12 (11751679_a_at) / RFU CDKN2B (11736163_a_at) / Fold change /veh CDKN2B (11736163_a_at) / RFU PRF1 (11729649_at) / Fold change /veh PRF1 (11729649_at) / RFU, ZNF638 /// ZNF638-IT1 / Fold change vs veh, ZNF638 /// ZNF638-IT1 / RFU, PANK3 / Fold change vs veh, PANK3 / RFU, SH3YL1 / Fold change vs veh, SH3YL1 / RFU, ZEB2 / Fold change vs veh, ZEB2 / RFU, NRIP1 / Fold change vs veh, NRIP1 / RFU, PTTG1IP / Fold change vs veh, PTTG1IP / RFU, CAPN2 / Fold change vs veh, CAPN2 / RFU, MED14 / Fold change vs veh, MED14 / RFU, SNORA58 / Fold change vs veh, SNORA58 / RFU, C1orf63 / Fold change vs veh, C1orf63 / RFU, LRRFIP1 / Fold change vs veh, LRRFIP1 / RFU, NDUFAF7 / Fold change vs veh, NDUFAF7 / RFU, SLC12A2 / Fold change vs veh, SLC12A2 / RFU, IBTK / Fold change vs veh, IBTK / RFU, ESF1 / Fold change vs veh, ESF1 / Fold change vs veh, TMEM50B / RFU, TAOK1 / Fold change vs veh, TAOK1 / RFU, ACBD3 / Fold change vs veh, ACBD3 / RFU, TMA16 / Fold change vs veh, TMA16 / RFU, RWDD3 / Fold change vs veh, RWDD3 / RFU, BCAT1 / Fold change vs veh, BCAT1 / RFU, EDEM3 / Fold change vs veh, EDEM3 / RFU, TMEM33 / Fold change vs veh, TMEM33 / RFU, WDR75 / Fold change vs veh, WDR75 / RFU, AHCTF1 / Fold change vs veh, AHCTF1 / RFU, TFRC / Fold change vs veh, TFRC / RFU, ZDHHC17 / Fold change vs veh, ZDHHC17 / RFU, NOM1 / Fold change vs veh, NOM1 / RFU, ARL8B / Fold change vs veh, ARL8B / RFU, ZBTB11 / Fold change vs veh, ZBTB11 / RFU, TAMM41 / Fold change vs veh, TAMM41 / RFU, KIAA1704 /// LOC100996395 / Fold change vs veh, KIAA1704 /// LOC100996395 / RFU, ING1 / Fold change vs veh, ING1 / RFU, TRMT61B / Fold change vs veh, TRMT61B / RFU, FUBP3 / Fold change vs veh, FUBP3 / RFU, TP53 / Fold change vs veh, TP53 / RFU, TNKS2 / Fold change vs veh, TNKS2 / RFU, ZFP14 / Fold change vs veh, ZFP14 / RFU, ACTR2 / Fold change vs veh, ACTR2 / RFU, PPP3R1 / Fold change vs veh, PPP3R1 / RFU, PIK3R1 / Fold change vs veh, PIK3R1 / RFU, HNRNPA1 / Fold change vs veh, HNRNPA1 / RFU, RNF170 / Fold change vs veh, RNF170 / RFU, ZNF28 / Fold change vs veh, ZNF28 / RFU, RNGTT / Fold change vs veh, RNGTT / RFU, OGT / Fold change vs veh, OGT / RFU, BRD1 / Fold change vs veh, BRD1 / RFU, MARS / Fold change vs veh, MARS / RFU, ZNF655 / Fold change vs veh, ZNF655 / RFU, FAHD1 / Fold change vs veh, FAHD1 / RFU, BDP1 / Fold change vs veh, BDP1 / RFU, LRRCC1 / Fold change vs veh, LRRCC1 / RFU, ARID1A / Fold change vs veh, ARID1A / RFU, ZNF146 / Fold change vs veh, ZNF146 / RFU, ZNF330 / Fold change vs veh, ZNF330 / RFU, GPN3 / Fold change vs veh, GPN3 / RFU, C9orf123 / Fold change vs veh, C9orf123 / RFU, N4BP2L2 / Fold change vs veh, N4BP2L2 / RFU, ARFIP1 / Fold change vs veh, ARFIP1 / RFU, FAM179B / Fold change vs veh, FAM179B / RFU, BCL10 / Fold change vs veh, BCL10 / RFU, UHRF1BP1L / Fold change vs veh, UHRF1BP1L / RFU, BET1 / Fold change vs veh, BET1 / RFU, CNOT2 / Fold change vs veh, CNOT2 / RFU, ZNF268 / Fold change vs veh, ZNF268 / Fold change vs veh, ZNF507 / RFU, DGCR2 / Fold change vs veh, DGCR2 / RFU, WDSUB1 / Fold change vs veh, WDSUB1 / Fold change vs veh, HSP90B1 /// MIR3652 / RFU, ADSS / Fold change vs veh, ADSS / RFU, GK / Fold change vs veh, GK / RFU, ZNF148 / Fold change vs veh, ZNF148 / RFU, TAF9 / Fold change vs veh, TAF9 / RFU, SLC1A5 / Fold change vs veh, SLC1A5 / RFU, SLMO2 / Fold change vs veh, SLMO2 / RFU, ABCC4 / Fold change vs veh, ABCC4 / RFU, LOC101060439 /// RAP1B / Fold change vs veh, LOC101060439 /// RAP1B / RFU, RFX7 / Fold change vs veh, RFX7 / RFU, GTPBP10 / Fold change vs veh, GTPBP10 / RFU, CNEP1R1 / Fold change vs veh, CNEP1R1 / RFU, BIVM-ERCC5 /// ERCC5 / Fold change vs veh, BIVM-ERCC5 /// ERCC5 / RFU, ILF3 / Fold change vs veh, ILF3 / RFU 11762660_at / Fold change /veh 11762660_at / RFU VCAN (11757783_s_at) / Fold change /veh VCAN (11757783_s_at) / RFU DDX43 (11728927_at) / Fold change /veh DDX43 (11728927_at) / RFU KRT8 (11758188_x_at) / Fold change /veh KRT8 (11758188_x_at) / RFU NKD1 (11759106_at) / Fold change /veh NKD1 (11759106_at) / RFU SRD5A1 (11742802_a_at) / Fold change /veh SRD5A1 (11742802_a_at) / RFU TPSAB1 /// TPSB2 (11721975_s_at) / Fold change /veh TPSAB1 /// TPSB2 (11721975_s_at) / RFU GSTM3 (11746129_a_at) / Fold change /veh GSTM3 (11746129_a_at) / RFU IL23R (11737362_x_at) / Fold change /veh IL23R (11737362_x_at) / RFU TMEM51 (11727254_a_at) / Fold change /veh TMEM51 (11727254_a_at) / RFU PIWIL2 (11732686_x_at) / Fold change /veh PIWIL2 (11732686_x_at) / RFU ORM1 (11744905_x_at) / Fold change /veh ORM1 (11744905_x_at) / RFU CCDC152 (11743942_at) / Fold change /veh CCDC152 (11743942_at) / RFU ECM1 (11717891_a_at) / Fold change /veh ECM1 (11717891_a_at) / RFU IL23R (11748794_a_at) / Fold change /veh IL23R (11748794_a_at) / RFU TNFAIP8L3 (11732012_x_at) / Fold change /veh TNFAIP8L3 (11732012_x_at) / RFU MBOAT4 (11741988_at) / Fold change /veh MBOAT4 (11741988_at) / RFU 11764193_at / Fold change /veh 11764193_at / RFU TMEM53 (11763286_at) / Fold change /veh TMEM53 (11763286_at) / RFU MAGEB2 (11727129_at) / Fold change /veh MAGEB2 (11727129_at) / RFU TMEM200A (11744735_a_at) / Fold change /veh TMEM200A (11744735_a_at) / RFU CCDC152 (11751479_a_at) / Fold change /veh CCDC152 (11751479_a_at) / RFU FAM211A (11726209_a_at) / Fold change /veh FAM211A (11726209_a_at) / RFU RGS16 (11746705_a_at) / Fold change /veh RGS16 (11746705_a_at) / RFU VCAN (11755009_s_at) / Fold change /veh VCAN (11755009_s_at) / RFU RHOB (11743442_s_at) / Fold change /veh RHOB (11743442_s_at) / RFU RGS16 (11720943_a_at) / Fold change /veh RGS16 (11720943_a_at) / RFU RGS16 (11720944_at) / Fold change /veh RGS16 (11720944_at) / RFU, VPS4B / Fold change vs veh, VPS4B / RFU, CREB1 / Fold change vs veh, CREB1 / RFU, DNAJC13 / Fold change vs veh, DNAJC13 / RFU, GNAQ / Fold change vs veh, GNAQ / RFU, CDK5R1 / Fold change vs veh, CDK5R1 / RFU, ZRANB3 / Fold change vs veh, ZRANB3 / RFU, CUL4A / Fold change vs veh, CUL4A / RFU, CCNY / Fold change vs veh, CCNY / RFU, UFL1 / Fold change vs veh, UFL1 / RFU, COG3 / Fold change vs veh, COG3 / RFU, DIAPH2 / Fold change vs veh, DIAPH2 / RFU, SKA2 / Fold change vs veh, SKA2 / RFU, AFF3 / Fold change vs veh, AFF3 / RFU, LMF1 / Fold change vs veh, LMF1 / RFU, IPO11 / Fold change vs veh, IPO11 / RFU, DFFB / Fold change vs veh, DFFB / RFU, FOXP1 / Fold change vs veh, FOXP1 / RFU, CARD8 / Fold change vs veh, CARD8 / RFU, STRN3 / Fold change vs veh, STRN3 / RFU, ADK / Fold change vs veh, ADK / RFU, RASSF2 / Fold change vs veh, RASSF2 / RFU, WIPF1 / Fold change vs veh, WIPF1 / RFU, LARP1B / Fold change vs veh, LARP1B / RFU, RASA1 / Fold change vs veh, RASA1 / RFU, RB1 / Fold change vs veh, RB1 / RFU, PPFIA1 / Fold change vs veh, PPFIA1 / RFU, MAT2A / Fold change vs veh, MAT2A / RFU, CCT5 / Fold change vs veh, CCT5 / RFU, WDR92 / Fold change vs veh, WDR92 / RFU, CUX1 / Fold change vs veh, CUX1 / RFU, TTC7A / Fold change vs veh, TTC7A / RFU, TMEM135 / Fold change vs veh, TMEM135 / RFU, DEPTOR / Fold change vs veh, DEPTOR / RFU, CPM / Fold change vs veh, CPM / RFU, DNAJB6 / Fold change vs veh, DNAJB6 / RFU, CACNA2D3 / Fold change vs veh, CACNA2D3 / RFU, DTX4 / Fold change vs veh, DTX4 / RFU, TFCP2 / Fold change vs veh, TFCP2 / RFU, GMCL1 /// GMCL1P1 / Fold change vs veh, GMCL1 /// GMCL1P1 / RFU, AEBP2 / Fold change vs veh, AEBP2 / RFU, SNHG1 /// SNORD22 /// SNORD25 /// SNORD26 /// SNORD27 /// SNORD28 /// SNORD29 /// SNORD31 / Fold change vs veh, SNHG1 /// SNORD22 /// SNORD25 /// SNORD26 /// SNORD27 /// SNORD28 /// SNORD29 /// SNORD31 / Fold change (Aza/veh), C12orf56 (ProbeSet 11735607_a_at) / Fold change (ACY-1035/veh), C12orf56 (ProbeSet 11735607_a_at) / Fold change (Aza/veh), FGFR1OP (ProbeSet 11751329_s_at) / Fold change (ACY-1035/veh), FGFR1OP (ProbeSet 11751329_s_at) / Fold change (Aza/veh), VPS36 (ProbeSet 11739960_a_at) / Fold change (ACY-1035/veh), VPS36 (ProbeSet 11739960_a_at) / RFU SYPL1 (11715823_x_at) / Fold change /veh SYPL1 (11715823_x_at) / RFU IGFBP7 (11715501_s_at) / Fold change /veh IGFBP7 (11715501_s_at) / RFU REEP3 (11722064_at) / Fold change /veh REEP3 (11722064_at) / RFU IGLL1 (11728026_x_at) / Fold change /veh IGLL1 (11728026_x_at): dose or concentration left out as unconfirmed. As to conditions: ProbeSet 11718569_a_at; LIST D.

As for `Nc1ccc(-c2cccs2)cc1NC(=O)c1ccc2c(c1)cc(C1CC1)n2CCN1CCOCC1` [ACY-1035], the “RFU, WIPF1” value is 108.27 RFU.
